# According to patent US11617748B2, “Meclozine derivatives and diclazuril derivatives for use in the prevention and/or the treatment of disorders associated to the inflammation induced by P. acnes” (priority 2016, dated 2023):
# Structures can show the parent of a compound that is named as a salt.
# Key:
# Format in all cases: cell-based, human
# IL-8 production [1] = assay: P. acnes-induced IL-8 production in HaCaT keratinocytes (ELISA); conditions: for effect on IL-8 production at 6.25 μM, in words: 24 h pre-treatment (FIG. 8A); for decrease of IL-8 production at 6.25 μM / Dose-dependent inhibition of IL-8 production by keratinocytes stimulated by P. acnes pre-treated with meclozine analogues: 24 h pre-treatment; for decrease of IL-8 production at 6.25 μM: comparison with acne drugs (FIG. 8A); for Dose-dependent inhibition of IL-8 production by keratinocytes stimulated by P. acnes pre-treated with meclozine analogues: 10 μM
# Experimental: Bacterial strain and conditions of growth. P. acnes strain 6919 was obtained from the American Type Culture Collection (Manassas, Va.) and P. acnes strains RON and PIE were isolated from patient with joint infection. All strains were grown under anaerobic conditions in reinforced clostridial liquid and solid medium (RCM) (Difco Laboratories, Detroit, Mich.). P. acnes was transferred from the bacterial stock onto RCM agar plate and incubated for 5 days under anaerobic condition by using a GasPak™ EZ Anaerobic Container System (Becton Dickinson & Co, Sparks Md., USA). A single colony was transferred into 100 ml RCM and grown as described above. Bacterial suspension was then store frozen at −80° C. in presence of 10% glycerol final. This stock was called «start stock» and used for all the experiments. For routine culture, 100 ml of RCM was used and bacteria were harvested after 5 days at 37° C. by centrifugation at 7,000×g for 10 min at 4° C. Pellets were pooled and washed in about 30 ml of cold sterile PBS [1.5 mM KH2PO4, 2.7 mM Na2HPO4.7H2O, 0.15 M NaCl (pH 7.4)] and centrifuged again as described above. Finally, the bacterial pellet was suspended in sterile PBS (1:10 from volume culture).
# (§1) Cell culture, pretreatment and stimulation. The immortalized human keratinocyte cell line HaCaT, fibroblast MRC5 were grown in Dulbecco's modified Eagle's medium-Glutamax-I (DMEM) with 1 mM sodium pyruvate. The immortalized human monocytic cell line ThP1 was grown in Roswell Park Memorial Institute 1640 Medium-Glutamax-I (RPMI). DMEM and RPMI were supplemented with 0.1% and 10% heat-inactivated fetal calf serum (Invitrogen), and an antibiotic/antimycotic solution (10 U/ml Pencillin, 10 μg/ml Streptomycin, 0.25 μg/ml Amphoterin) at 37° C. in humidified atmosphere containing 5% CO2 as described (Life Technologie). Primary human keratinocytes (NHDK) and fibroblast (HDF) were grown in the KGM-Gold and in FGM-2 Bullet Kit, respectively, as described by the manufacturer (Lonza). The immortalized cell lines were routinely tested to assess the absence of Mycoplasma infection. Cells, cultivated in 6- or 96-well polystyrene plates, were pretreated with appropriate molecule solution for 1 to 48 h at 37° C. in the dark at the appropriate concentration. Then, for stimulation, cells were incubated for 15 min to 24 h with the P. acnes suspension adjusted at the appropriate concentration at 37° C. in 5% CO2. For experiences using an in vitro model of psoriasis, the primary human keratinocytes (NHDK) were grown in culture medium for 24 hours. The medium was removed and replaced with culture medium containing meclozine, diclazuril and JAK inhibitor (used as positive control) at the concentrations of 0.39, 0.78, 1.56, 3.12, 6.25 and 12.5 μM and the pro-inflammatory mixture M5 (combination of IL-17A, OSM, TNF-α, IL-22, IL-1α at 10 ng/ml) was added to the cells followed by an incubation for 48 or 72 hours.
# (§2) ELISA. Human IL-1β, IL-8, hBD-2 and TNF-α protein concentration were measured in the supernatants of stimulated cells using various ELISA Sets (all from Ready-Set-Go from eBioscience, except hBD-2 measurements: Human DEFB4A/BD-2 ELISA Kit from LSBio) according to the manufacturer's instructions. We used serial dilutions of recombinant human IL-1β, IL-8, hBD-2 and TNF-α for standard curve. The optical density was determined at 450 nm at a wavelength correction of 540 nm.
# Both molecules, diclazuril and meclozine, were purchased separately from Sigma and tested independently on immortalized keratinocytes HaCaT cell for their capacity to inhibit the IL-8 production in a dose-dependent manner. HaCaT cells were pre-treated with diclazuril and meclozine, at the concentrations ranging from 0.39 to 50 μM, for 24 h and then stimulated with P. acnes suspension as described in Materials and Methods. The production of IL-8 was measured on culture supernatant by ELISA and the viability of cells was estimated by MTT assay (FIG. 1).
# IL-8 production [2] = assay: as above; conditions: HaCaT cells pre-treated 24 h, no P. acnes stimulation
# HaCaT cells = assay: MTT cell viability assay on HaCaT keratinocytes; conditions: for Evaluation of cell viability after treatment with meclozine analogues on keratinocytes: 24 h, 10 μM
# Experimental: as §1, with “The immortalized human monocytic cell line ThP1 was grown in Roswell Park Memorial Institute 1640 Medium-Glutamax-I (RPMI).” left out, “hours.” for “hours. The medium was removed and replaced with culture medium containing meclozine, diclazuril and JAK inhibitor (used as positive control) at the concentrations of 0.39, 0.78, 1.56, 3.12, 6.25 and 12.5 μM and the pro-inflammatory mixture M5 (combination of IL-17A, OSM, TNF-α, IL-22, IL-1α at 10 ng/ml) was added to the cells followed by an incubation for 48 or 72 hours.”
# Cell viability assays. Viability of cells was estimated by using the MTT assay where cells were incubated with a 0.2% MTT solution in cell culture medium for 4 h at 37° C. The MTT solution was then discarded and DMSO added to solubilize the MTT-formazan cristals produced in living cells. After thorough mixing, the absorbance was measured at 540 nm.
# IL-8 production [3] = assay: IL-8 production by M5-stimulated NHDK, in vitro psoriasis-like model (ELISA); conditions: NHDK + M5, 48 h, JAK inhibitor at 6.25 μM (positive control)
# Experimental: (§3) Cell culture, pretreatment and stimulation.
# as §2
# hBD-2 production = hBD-2 production by M5-stimulated NHDK, in vitro psoriasis-like model (ELISA); conditions: NHDK + M5, 48 h, JAK inhibitor at 6.25 μM (positive control)
# Experimental: as §3, §2
compound,measurement,setting,value
"Cc1cc(-n2ncc(=O)[nH]c2=O)cc(Cl)c1Sc1ccc(Cl)cc1 [RCL PH000645-PH, PH000645-PH]",IC50,"IL-8 production [1]; Homo sapiens, HaCaT cells pre-treated 24 h, then stimulated with P. acnes, read-out: IC50 of inhibition of IL-8 production",~3000 nM
same,IL-8 production in pretreated cells without being stimulated,IL-8 production [2],no change
O=C(OOC(=O)c1ccccc1)c1ccccc1 [benzoyl peroxide],"effect on IL-8 production at 6.25 μM, in words",IL-8 production [1]; HaCaT,very low none significative or no effect
same,"toxicity at 6.25 μM, in words (MTT)","HaCaT cells; HaCaT, 6.25 μM, 24 h pre-treatment (FIG. 8A)",no toxicity
COc1ccc(-c2ccc3cc(C(=O)O)ccc3c2)cc1C12CC3CC(CC(C3)C1)C2 [adapalene],decrease of IL-8 production at 6.25 μM,IL-8 production [1]; HaCaT,20%
same,IL-8 reduction at 12.5 μM,"IL-8 production [1]; HaCaT, 12.5 μM, 24 h pre-treatment (FIG. 8B)",90%
Cc1cccc(C)c1NC(=O)CN1CCN(CCCC(c2ccc(F)cc2)c2ccc(F)cc2)CC1 [Lidoflazine],Dose-dependent inhibition of IL-8 production by keratinocytes stimulated by P. acnes pre-treated with meclozine analogues,IL-8 production [1]; HaCaT,65%
same,Evaluation of cell viability after treatment with meclozine analogues on keratinocytes,HaCaT cells; human,107%
CC[C@H]1OC(=O)[C@H](C)[C@@H](O[C@H]2C[C@@](C)(OC)[C@@H](O)[C@H](C)O2)[C@H](C)[C@@H](O[C@@H]2O[C@H](C)C[C@H](N(C)C)[C@H]2O)[C@](C)(O)C[C@@H](C)C(=O)[C@H](C)[C@@H](O)[C@]1(C)O [erythromycine],"effect on IL-8 production at 6.25 μM, in words",IL-8 production [1]; HaCaT,very low none significative or no effect
Jak Inhibitor I,inhibition of M5-stimulated IL-8 production,IL-8 production [3],49%
same,inhibition of stimulated hBD-2 production,hBD-2 production,38%
CN1CCN(C(c2ccccc2)c2ccc(Cl)cc2)CC1 (centres unmarked) [Chlorcyclizine hydrochloride],Dose-dependent inhibition of IL-8 production by keratinocytes stimulated by P. acnes pre-treated with meclozine analogues,IL-8 production [1]; HaCaT,54%
same,Evaluation of cell viability after treatment with meclozine analogues on keratinocytes,HaCaT cells; human,81%
CC1=C(/C=C/C(C)=C/C=C/C(C)=C\C(=O)O)C(C)(C)CCC1 [isotretinoin],decrease of IL-8 production at 6.25 μM,IL-8 production [1]; HaCaT,5%
COc1ccc(CN2CCN(C(c3ccc(F)cc3)c3ccc(F)cc3)CC2)c(OC)c1OC [Lomerizine],Dose-dependent inhibition of IL-8 production by keratinocytes stimulated by P. acnes pre-treated with meclozine analogues,IL-8 production [1]; HaCaT,58%
same,Evaluation of cell viability after treatment with meclozine analogues on keratinocytes,"HaCaT cells; HaCaT, MTT",95%
Fc1ccc(C(OCCN2CCN(CCCc3ccccc3)CC2)c2ccc(F)cc2)cc1 [GBR 12909 dihydrochloride],Dose-dependent inhibition of IL-8 production by keratinocytes stimulated by P. acnes pre-treated with meclozine analogues,IL-8 production [1]; HaCaT,78%
same,Evaluation of cell viability after treatment with meclozine analogues on keratinocytes,HaCaT cells; human,78%
CC1=C(/C=C/C(C)=C/C=C/C(C)=C/C(=O)O)C(C)(C)CCC1 [retinoic acid],decrease of IL-8 production at 6.25 μM,IL-8 production [1]; HaCaT,5%
CCC[C@@H]1C[C@@H](C(=O)N[C@@H]([C@H]2O[C@H](SC)[C@H](O)[C@@H](O)[C@H]2O)[C@H](C)Cl)N(C)C1 [clindamycine],"effect on IL-8 production at 6.25 μM, in words",IL-8 production [1]; HaCaT,very low none significative or no effect
